Results taken from patent US20260327204A1, “DEGRADERS OF CYCLIN-DEPENDENT KINASE 12/13, COMPOSITIONS, AND USES THEREOF” (ZHEJIANG UNIVERSITY, priority 2023, published 2026).
Where two headings read alike, the source gives them in different places.

What was measured:
Format in all cases: cell-based
CCNK = assay: Reversal of CCNK degradation by proteasome inhibitor MG132, Western blot; conditions: MDA-MB-231, 24 h treatment, MG132 added 12 h before sample collection
Procedure: (§1) • Cell lines: HCT-116, Jurkat, or MDA-MB-231 • Culture medium: DMEM/RIPM-1640+10% Hyclone serum • Compound dissolution method: The compounds (small molecule conjugates as shown in Formulae 101-147, MG132) were dissolved in DMSO to prepare a 50 mM stock solution and then diluted to the corresponding concentrations.
(§2) (3) Compound treatment: The 50 mM compound stock solution was diluted with cell culture medium to a final concentration of 0.01 μM-3 μM. Cells were incubated in a 37 °C incubator with 5% CO2 for 3 h-48 h. The DMSO group served as the negative control.
In the figures, CDK12, CDK13, and CCNK are the target proteins under study, and β-Actin and GAPDH are the internal reference proteins. Internal reference proteins are used to indicate the total protein amount in each experimental group for quantitative analysis.

CDK12 [1] = molecular target: T1, CDK12 (Homo sapiens, UniProt Q9NYV4); assay: Reversal of CDK12 degradation by proteasome inhibitor MG132, Western blot; parameters: endogenous in cells; conditions: MDA-MB-231, 24 h treatment, MG132 added 12 h before sample collection
Procedure: as §1, §2

CDK13 [2] = molecular target: T2, CDK13 (Homo sapiens, UniProt Q14004); assay: Reversal of CDK13 degradation by proteasome inhibitor MG132, Western blot; parameters: endogenous in cells; conditions: MDA-MB-231, 24 h treatment, MG132 added 12 h before sample collection
Procedure: as §1, §2

CDK12 [3] = molecular target: T1, CDK12; assay: Western blot degradation of CDK12 (Example 3); parameters: degradation of CDK12/13 protein in leukemia cells KASUMI-1, MV4-11, and Jurkat; endogenous in cells
CDK13 [4] = molecular target: T2, CDK13; assay: Western blot degradation of CDK13 (Example 3); parameters: degradation of CDK12/13 protein in leukemia cells KASUMI-1, MV4-11, and Jurkat; endogenous in cells
[5] = DC50 classes, cell line not given, read-out: CDK12 degradation Activity
[6] = DC50 classes, cell line not given, read-out: CDK13 degradation Activity

T1 sequence (Q9NYV4 whole entry): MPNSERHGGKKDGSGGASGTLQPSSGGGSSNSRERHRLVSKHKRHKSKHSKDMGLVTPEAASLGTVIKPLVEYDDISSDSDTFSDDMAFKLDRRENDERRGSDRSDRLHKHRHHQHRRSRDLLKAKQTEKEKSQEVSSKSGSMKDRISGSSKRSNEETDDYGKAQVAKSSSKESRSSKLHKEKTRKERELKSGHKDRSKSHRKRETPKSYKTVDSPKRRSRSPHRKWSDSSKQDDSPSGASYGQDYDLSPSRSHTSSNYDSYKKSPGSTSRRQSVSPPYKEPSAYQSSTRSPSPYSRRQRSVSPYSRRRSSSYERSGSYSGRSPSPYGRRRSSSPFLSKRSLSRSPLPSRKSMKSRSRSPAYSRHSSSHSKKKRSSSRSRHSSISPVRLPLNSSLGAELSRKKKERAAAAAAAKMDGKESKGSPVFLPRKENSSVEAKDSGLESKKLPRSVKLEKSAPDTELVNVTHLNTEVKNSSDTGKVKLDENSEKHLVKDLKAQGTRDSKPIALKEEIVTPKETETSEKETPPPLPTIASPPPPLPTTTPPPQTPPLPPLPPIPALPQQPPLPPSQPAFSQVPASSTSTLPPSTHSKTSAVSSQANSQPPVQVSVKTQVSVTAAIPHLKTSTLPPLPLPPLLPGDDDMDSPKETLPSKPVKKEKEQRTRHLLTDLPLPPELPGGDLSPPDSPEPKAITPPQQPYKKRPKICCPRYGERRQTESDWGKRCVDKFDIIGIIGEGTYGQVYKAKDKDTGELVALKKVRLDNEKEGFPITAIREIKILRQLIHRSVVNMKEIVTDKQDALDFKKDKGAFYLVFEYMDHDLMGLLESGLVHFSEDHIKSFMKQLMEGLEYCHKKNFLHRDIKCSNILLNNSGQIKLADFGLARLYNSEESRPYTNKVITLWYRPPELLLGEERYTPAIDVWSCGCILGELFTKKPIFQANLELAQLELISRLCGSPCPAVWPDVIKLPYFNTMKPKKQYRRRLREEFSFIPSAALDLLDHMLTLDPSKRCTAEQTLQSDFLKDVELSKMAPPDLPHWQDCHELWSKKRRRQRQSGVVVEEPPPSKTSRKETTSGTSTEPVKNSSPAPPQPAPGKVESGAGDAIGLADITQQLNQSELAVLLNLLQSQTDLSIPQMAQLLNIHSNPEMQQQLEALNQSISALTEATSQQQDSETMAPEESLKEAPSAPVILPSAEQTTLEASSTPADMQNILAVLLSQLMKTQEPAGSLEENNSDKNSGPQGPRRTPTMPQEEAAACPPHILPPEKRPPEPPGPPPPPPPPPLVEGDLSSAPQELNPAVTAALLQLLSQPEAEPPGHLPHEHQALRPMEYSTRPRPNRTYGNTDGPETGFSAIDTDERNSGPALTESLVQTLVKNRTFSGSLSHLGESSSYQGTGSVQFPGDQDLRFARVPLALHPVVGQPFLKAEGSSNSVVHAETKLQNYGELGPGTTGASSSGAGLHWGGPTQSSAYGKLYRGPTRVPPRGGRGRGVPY
T1 sequence (O75909 whole entry partner): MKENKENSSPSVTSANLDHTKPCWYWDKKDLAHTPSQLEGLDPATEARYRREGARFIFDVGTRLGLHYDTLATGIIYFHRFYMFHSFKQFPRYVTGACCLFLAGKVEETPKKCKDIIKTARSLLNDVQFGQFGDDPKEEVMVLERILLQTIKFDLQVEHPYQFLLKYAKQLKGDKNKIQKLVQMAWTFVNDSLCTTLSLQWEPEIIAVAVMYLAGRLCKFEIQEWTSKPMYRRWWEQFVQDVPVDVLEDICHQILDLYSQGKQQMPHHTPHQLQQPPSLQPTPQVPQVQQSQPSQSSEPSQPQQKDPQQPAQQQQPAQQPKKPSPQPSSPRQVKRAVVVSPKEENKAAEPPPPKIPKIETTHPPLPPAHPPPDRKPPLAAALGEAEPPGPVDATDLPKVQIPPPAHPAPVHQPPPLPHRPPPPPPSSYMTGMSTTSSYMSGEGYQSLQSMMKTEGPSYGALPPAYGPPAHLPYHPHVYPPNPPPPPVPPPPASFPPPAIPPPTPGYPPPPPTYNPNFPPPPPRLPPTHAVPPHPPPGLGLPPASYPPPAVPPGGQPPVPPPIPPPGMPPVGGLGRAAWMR
T2 sequence (Q14004 whole entry): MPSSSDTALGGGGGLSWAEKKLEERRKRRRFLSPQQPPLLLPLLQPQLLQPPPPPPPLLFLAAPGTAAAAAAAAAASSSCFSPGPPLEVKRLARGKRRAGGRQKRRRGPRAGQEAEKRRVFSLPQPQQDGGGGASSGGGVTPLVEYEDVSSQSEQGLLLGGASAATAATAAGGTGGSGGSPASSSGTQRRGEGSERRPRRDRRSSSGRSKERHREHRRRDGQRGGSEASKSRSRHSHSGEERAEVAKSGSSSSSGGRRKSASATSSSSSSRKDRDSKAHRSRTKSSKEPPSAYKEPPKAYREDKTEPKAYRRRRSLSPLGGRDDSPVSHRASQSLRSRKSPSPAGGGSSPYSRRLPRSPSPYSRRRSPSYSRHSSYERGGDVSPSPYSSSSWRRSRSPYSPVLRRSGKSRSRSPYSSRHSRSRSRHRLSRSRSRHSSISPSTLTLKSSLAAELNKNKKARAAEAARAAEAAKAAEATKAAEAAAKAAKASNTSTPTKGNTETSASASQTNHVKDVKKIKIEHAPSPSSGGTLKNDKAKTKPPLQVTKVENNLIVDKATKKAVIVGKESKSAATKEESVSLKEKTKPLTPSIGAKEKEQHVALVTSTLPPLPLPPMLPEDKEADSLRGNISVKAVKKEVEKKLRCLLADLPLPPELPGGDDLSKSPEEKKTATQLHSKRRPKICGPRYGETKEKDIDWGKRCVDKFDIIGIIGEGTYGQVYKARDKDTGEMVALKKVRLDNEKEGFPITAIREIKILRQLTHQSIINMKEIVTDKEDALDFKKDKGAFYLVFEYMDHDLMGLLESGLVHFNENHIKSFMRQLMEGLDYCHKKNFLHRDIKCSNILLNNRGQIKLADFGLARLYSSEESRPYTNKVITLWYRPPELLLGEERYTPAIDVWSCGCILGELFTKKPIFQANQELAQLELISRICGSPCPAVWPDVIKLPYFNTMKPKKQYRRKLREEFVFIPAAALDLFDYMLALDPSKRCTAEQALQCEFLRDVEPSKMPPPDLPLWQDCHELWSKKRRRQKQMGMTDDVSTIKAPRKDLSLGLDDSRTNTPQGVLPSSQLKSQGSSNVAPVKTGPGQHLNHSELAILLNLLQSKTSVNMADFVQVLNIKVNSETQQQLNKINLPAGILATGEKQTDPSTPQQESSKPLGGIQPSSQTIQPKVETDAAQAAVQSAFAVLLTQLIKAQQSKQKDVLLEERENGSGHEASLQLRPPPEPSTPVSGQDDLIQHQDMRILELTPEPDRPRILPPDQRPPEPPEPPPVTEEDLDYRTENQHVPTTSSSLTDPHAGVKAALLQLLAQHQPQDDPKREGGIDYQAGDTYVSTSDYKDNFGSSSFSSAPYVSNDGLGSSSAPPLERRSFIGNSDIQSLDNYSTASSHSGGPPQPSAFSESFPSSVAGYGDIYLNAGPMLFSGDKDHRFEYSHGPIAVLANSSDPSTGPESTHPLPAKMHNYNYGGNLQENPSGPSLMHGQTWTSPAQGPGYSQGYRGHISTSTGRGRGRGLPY
T2 sequence (O75909 whole entry partner): as the sequence (O75909 whole entry partner) above

DC50 (CDK12 [3]; [5]) [µM]	DC50 (CDK13 [4]; [6]) [µM]	Compound	other results
< 0.1	< 0.1	CC(=O)N(c1ccc(-c2ccc(N3CCN(c4ccc5c(c4)C(=O)N(C4CCC(=O)NC4=O)C5=O)CC3)nc2)cc1)[C@H]1CC[C@H](Nc2ncc3ccccc3n2)CC1 (stereo partly drawn) [Formula 103, N-(4-(6-(4-(2-(2,6-dioxopiperidin-3-yl)-1,3-dioxoisoindolin-5-yl)piperazin-1-yl)pyridin-3-yl)phenyl)-N-((1R,4R)-4-(quinazolin-2-ylamino)cyclohexyl)acetamide]	reversal of CCNK degradation by MG132 (CCNK): can reverse the degradation of CDK12/13 and CCNK; reversal of CDK12 degradation by MG132 (CDK12 [1]): can reverse the degradation of CDK12/13 and CCNK; reversal of CDK13 degradation by MG132 (CDK13 [2]): can reverse the degradation of CDK12/13 and CCNK; DC50 (CDK12 [3]; HCT116, colorectal cancer cells, read-out: CDK12 DC50): 0.022 µM; DC50 (CDK12 [3]; KASUMI-1, leukemia cells, read-out: CDK12 DC50): 0.015 µM; DC50 (CDK12 [3]; MDA-MB-231, breast cancer cells, read-out: CDK12 DC50): 0.016 µM; DC50 (CDK13 [4]; HCT116, colorectal cancer cells, read-out: CDK13 DC50): 0.019 µM; DC50 (CDK13 [4]; KASUMI-1, leukemia cells, read-out: CDK13 DC50): 0.018 µM; DC50 (CDK13 [4]; MDA-MB-231, breast cancer cells, read-out: CDK13 DC50): 0.03 µM
< 0.1	< 0.1	CC(=O)N(c1ccc(-c2cnc(N3C[C@@H]4C[C@H]3CN4CC(=O)N[C@H](C(=O)N3C[C@H](O)C[C@H]3C(=O)N[C@@H](C)c3ccc(-c4scnc4C)cc3)C(C)(C)C)nc2)cc1)[C@H]1CC[C@H](Nc2ncc3ccccc3n2)CC1 [Formula 142, (2S,4R)-1-((S)-3,3-dimethyl-2-(2-((1S,4S)-5-(5-(4-(N-((1R,4S)-4-(quinazolin-2-ylamino)cyclohexyl)acetamido)phenyl)pyrimidin-2-yl)-2,5-diazabicyclo[2.2.1]heptan-2-yl)acetamido)butanoyl)-4-hydroxy-N—((S)-1-(4-(4-methylthiazol-5-yl)phenyl)ethyl)pyrrolidine-2-carboxamide]	
0.5 to 1	1 to 3	CC(=O)N(c1ccc(-c2ccc(OC3CCN(CC(=O)N[C@H](C(=O)N4C[C@H](O)C[C@H]4C(=O)N[C@@H](C)c4ccc(-c5scnc5C)cc4)C(C)(C)C)CC3)nc2)cc1)[C@H]1CC[C@H](Nc2ncc3ccccc3n2)CC1 [Formula 135, (2S,4R)-1-((S)-3,3-dimethyl-2-(2-(4-((5-(4-(N-((1R,4R)-4-(quinazolin-2-ylamino)cyclohexyl)acetamido)phenyl)pyridin-2-yl)oxy)piperidin-1-yl)acetamido)butanoyl)-4-hydroxy-N—((S)-1-(4-(4-methylthiazol-5-yl)phenyl)ethyl)pyrrolidine-2-carboxamide]	
3 to 10	3 to 10	CC(=O)N(c1ccc(-c2cncc(C(=O)N[C@H]3CCC(=O)NC3=O)c2)cc1)[C@H]1CC[C@H](Nc2ncc3ccccc3n2)CC1 [Formula 128, N—((S)-2,6-dioxopiperidin-3-yl)-5-(4-(N-((1R,4S)-4-(quinazolin-2-ylamino)cyclohexyl)acetamido)phenyl)nicotinamide]	
1 to 3	0.5 to 1	CC(=O)N(c1ccc(-c2cnc(O[C@H]3CCN(c4ccc5c(c4)C(=O)N(C4CCC(=O)NC4=O)C5=O)C3)nc2)cc1)[C@H]1CC[C@H](Nc2ncc3ccccc3n2)CC1 (stereo partly drawn) [Formula 110, N-(4-(2-(((3S)-1-(2-(2,6-dioxopiperidin-3-yl)-1,3-dioxoisoindolin-5-yl)pyrrolidin-3-yl)oxy)pyrimidin-5-yl)phenyl)-N-((1R,4R)-4-(quinazolin-2-ylamino)cyclohexyl)acetamide]	
0.1 to 0.5	< 0.1	CC(=O)N(c1ccc(-c2cnc(N3CCN(Cc4cnn([C@H](C(=O)N5C[C@H](O)C[C@H]5C(=O)N[C@@H](C)c5ccc(-c6scnc6C)cc5)C(C)C)c4)CC3)nc2)cc1)[C@H]1CC[C@H](Nc2ncc3ccccc3n2)CC1 [Formula 153, (2S,4R)-4-hydroxy-1-((S)-3-methyl-2-(4-((4-(5-(4-(N-((1R,4R)-4-(quinazolin-2-ylamino)cyclohexyl)acetamido)phenyl)pyrimidin-2-yl)piperazin-1-yl)methyl)-1H-pyrazol-1-yl)butanoyl)-N—((S)-1-(4-(4-methylthiazol-5-yl)phenyl)ethyl)pyrrolidine-2-carboxamide]	
1 to 3	1 to 3	CC(=O)N(c1ccc(-c2cnc(N3CCN(c4cc(NC5CCC(=O)NC5=O)ccc4F)CC3)nc2)cc1)[C@H]1CC[C@H](Nc2ncc3ccccc3n2)CC1 (stereo partly drawn) [Formula 130, N-(4-(2-(4-(5-((2,6-dioxopiperidin-3-yl)amino)-2-fluorophenyl)piperazin-1-yl)pyrimidin-5-yl)phenyl)-N-((1R,4R)-4-(quinazolin-2-ylamino)cyclohexyl)acetamide]	
	3 to 10	CC(=O)N(c1ccc(-c2ccc(N3CCN(C(=O)N[C@H](C(=O)N4C[C@H](O)CC4C(=O)N[C@@H](C)c4ccc(-c5scnc5C)cc4)C(C)(C)C)CC3)nc2)cc1)[C@H]1CC[C@H](Nc2ncc3ccccc3n2)CC1 (some centres unmarked) [Formula 145]	CDK12 degradation Activity (CDK12 [3]; DC50 classes, cell line not given): −
1 to 3	1 to 3	CC(=O)N(c1ccc(N2CCN(C(=O)CNc3ccc4c(c3)C(=O)N(C3CCC(=O)NC3=O)C4=O)CC2)cc1)[C@H]1CC[C@H](Nc2ncc3ccccc3n2)CC1 (stereo partly drawn) [Formula 101, N-(4-(4-((2-(2,6-dioxopiperidin-3-yl)-1,3-dioxoisoindolin-5-yl)aminoacetyl)piperazin-1-yl)phenyl)-N-((1R,4R)-4-(quinazolin-2-ylamino)cyclohexyl)acetamide]	
3 to 10	3 to 10	CC(=O)N(c1ccc(N2CCC3(CC2)CCN(c2ccc4c(c2)C(=O)N(C2CCC(=O)NC2=O)C4=O)CC3)cc1)[C@H]1CC[C@H](Nc2ncc3ccccc3n2)CC1 (stereo partly drawn) [Formula 120, N-(4-(9-(2-(2,6-dioxopiperidin-3-yl)-1,3-dioxoisoindolin-5-yl)-3,9-diazaspiro[5.5]undecan-3-yl)phenyl)-N-((1R,4R)-4-(quinazolin-2-ylamino)cyclohexyl)acetamide]	
1 to 3	3 to 10	CC(=O)N(c1ccc(N2CCN(CC3CCN(c4ccc5c(c4)C(=O)N(C4CCC(=O)NC4=O)C5=O)C3)CC2)cc1)[C@H]1CC[C@H](Nc2ncc3ccccc3n2)CC1 (stereo partly drawn) [Formula 126, N-(4-(4-((1-(2-(2,6-dioxopiperidin-3-yl)-1,3-dioxoisoindolin-5-yl)pyrrolidin-3-yl)methyl)piperazin-1-yl)phenyl)-N-((1R,4R)-4-(quinazolin-2-ylamino)cyclohexyl)acetamide]	
1 to 3	1 to 3	CC(=O)N(c1ccc(-c2ccn(CC3CCN(c4ccc5c(c4)C(=O)N(C4CCC(=O)NC4=O)C5=O)CC3)c(=O)c2)cc1)[C@H]1CC[C@H](Nc2ncc3ccccc3n2)CC1 (stereo partly drawn) [Formula 111, N-(4-(1-((1-(2-(2,6-dioxopiperidin-3-yl)-1,3-dioxoisoindolin-5-yl)piperidin-4-yl)methyl)-2-oxo-1,2-dihydropyridin-4-yl)phenyl)-N-((1R,4R)-4-(quinazolin-2-ylamino)cyclohexyl)acetamide]	
0.5 to 1	0.5 to 1	CC(=O)N(c1ccc(N2CCN(CC3CCN(c4ccc5c(c4)C(=O)N(C4CCC(=O)NC4=O)C5=O)CC3)CC2)cc1)[C@H]1CC[C@H](Nc2ncc3ccccc3n2)CC1 (some centres unmarked) [Formula 106]	
